Here are results for 12 compounds from ChEMBL document CHEMBL5096193, “Potential pharmacological strategies targeting the Niemann-Pick C1 receptor and Ebola virus glycoprotein interaction” (Eur J Med Chem, 2021).

Test [1] can be described thus: Inhibition of NPC1/VSV pseudotyped Ebola Viral Glycoprotein protein-protein interaction. Set-up: species or system Ebolavirus.
In test [2] the test system is Ebolavirus. Put plainly: Antiviral activity against Ebola virus makona. The format is functional, organism-based. Conditions: Orthoebolavirus.
A further test has as its system Zaire ebolavirus. Put plainly: Antiviral activity against Zaire ebolavirus infected in african green monkey assessed as reduction in viral infection preincubated for 1 hr followed by viral infection 1 hr and measured after 8 days by crystal violet staining based plaque assay. The test is classed as functional, organism-based, Vero E6. The conditions noted are these: Vero C1008.

In test [3] the test system is Ebolavirus. The experiment in a line: Antiviral activity against HIV based pseudotyped virus expressing Ebola-GP infected in human A549 cells assessed as inhibition of viral infection preincubated upto 12 hrs followed by viral infection and measured after 48 hrs. Conditions: Orthoebolavirus, time 60 hrs. The format is functional.
Test [4] has as its system Ebolavirus. Put plainly: Antiviral activity against HIV based pseudotyped virus expressing Ebola-GP infected in human HeLa cells assessed as reduction in viral infection preincubated for 1 hrs followed by viral infection and measured after 48hrs by Steady-Glo luciferase assay. The test is classed as functional, organism-based. The conditions noted are these: Orthoebolavirus.

In test [5] the test system is Ebolavirus. Put plainly: Antiviral activity against Zaire Ebola virus infected in African green monkey assessed as reduction in viral infection incubated for 48hrs by GFP fluorescence based method. The format is functional, organism-based, Vero E6. The conditions noted are these: Orthoebolavirus, Vero C1008, 48 h.
For test [6], the system named is Ebolavirus. Put plainly: Antiviral activity against HIV based pseudotyped virus expressing Ebola-GP infected in human 293T cells assessed as inhibition of viral infection preincubated for 1 hr followed by viral infection 1 hr and measured after 72 hrs. The format is functional. Conditions: Orthoebolavirus, 293TA; time 74 hrs.
The test system of test [7] is Ebolavirus. Put plainly: Antiviral activity against Ebola virus infected in […] cells assessed as reduction in viral infection incubated for 10 days by crystal violet staining based method. The test is classed as functional, organism-based. Conditions: Orthoebolavirus, 240 h.
For test [8], the system named is Ebolavirus. Put plainly: Antiviral activity against VSV based pseudotyped virus expressing Ebola-GP infected in […] cells assessed as reduction in viral infection incubated for 24 hrs by linear regression analysis. The test is classed as functional, organism-based. The conditions noted are these: Orthoebolavirus.
Test [9] relates to Ebolavirus. Put plainly: Antiviral activity against Ebola virus infected in African green monkey Vero E6 cells assessed as reduction in viral titer infected for 1 hr followed by compound addition and measured after 5 days by immunofocus assay. The test is classed as functional, organism-based. Conditions: Orthoebolavirus, Vero C1008.
The test system of test [10] is Ebolavirus. The experiment in a line: Antiviral activity against Ebola virus. The format is functional, organism-based. Conditions: Orthoebolavirus.

SMILES strings stand for the structures.

As usually defined, the IC50 is the concentration that inhibits the measured activity by half. Broadly, the EC50 is the concentration at which the effect is half-maximal. Consider `COC(=O)c1ccc(COc2ccccc2CN2CCN(C(=O)CNC(=O)CC34CC5CC(CC(C5)C3)C4)CC2)cc1`, for which inhibition in test [1] was half-maximal at 0.13 µM (IC50). The same compound had a concentration giving a half-maximal response (EC50) in the test with Ebolavirus [2] of 0.16 µM.

`O=C(CC12CC3CC(CC(C3)C1)C2)NCC(=O)N1CCN(Cc2ccccc2)CC1` showed a concentration for half-maximal inhibition (IC50) in test [1] of 1.6 µM. In general, IC90 refers to the concentration at which the effect reaches the 90% level. In the case of `COc1ccc(S(=O)(=O)N(CC(=O)Nc2ccccc2-c2ccccc2)c2ccc(C)cc2)cc1`, the concentration for half-maximal inhibition (IC50) with Zaire ebolavirus was 8.07 µM. Further, the concentration for an effect of 90% (IC90) in the test with Ebolavirus [3] was 8.6 µM. Consider `CCN(CC)CC(=O)NNc1ccccc1Sc1cc(Cl)ccc1[N+](=O)[O-]`, for which, in the test with Ebolavirus [4], the IC50 is 4.69 µM. For the compound `O=C(CNCCC1CCN(Cc2ccccc2)CC1)Nn1c2ccccc2c2ccccc21`, the IC50 with Ebolavirus [4] worked out at 0.37 µM. With `FC(C1=Nc2ccccc2N=C(c2ccccc2)C1)C(F)(F)F` (configuration not stated), the concentration for half-maximal inhibition (IC50) in the test on Ebolavirus [5] was 10 µM. Besides, in the test with Ebolavirus [6], the IC90 was 12.1 µM.

With `CCOc1ccc(NC(=O)CSc2nnc(COc3cccc(N(C)C)c3)n2-c2ccccc2)cc1`, the IC50 in the test on Zaire ebolavirus was 10 µM. The 90% effect concentration (IC90) with Ebolavirus [3] came out at 25.7 µM. Turning to `O=C(CN1CCCC1)NNc1ccccc1Sc1cc(Cl)ccc1[N+](=O)[O-]`, in the test with Ebolavirus [4], the half-maximal inhibitory concentration (IC50) was 2.04 µM.

With `C[C@]12CC3CC(C(=O)N[C@H]4CC[C@H](N)CC4)(C1)C[C@@](c1ccccc1)(C3)C2`, the EC50 in the test on Ebolavirus [7] and with Ebolavirus [8] was 0.24 µM each time. Take `NC(=O)c1nc(F)cnc1O` [FAVIPIRAVIR]: the IC50 in the test on Ebolavirus [9] stood at 67 µM. Turning to `CCC(CC)COC(=O)[C@H](C)N[P@](=O)(OC[C@H]1O[C@@](C#N)(c2ccc3c(N)ncnn23)[C@H](O)[C@@H]1O)Oc1ccccc1` [REMDESIVIR], the IC50 in the test with Ebolavirus [2] worked out at 86 µM.

In turn, `CN(C)CCOc1ccc(/C(=C(/CCCl)c2ccccc2)c2ccccc2)cc1` [TOREMIFENE] came in with a half-maximal inhibitory concentration (IC50) in the test on Ebolavirus [10] of 0.162 µM.
